Assay results: patent US20100129434A1, “COMPOSITIONS AND METHODS FOR THE TREATMENT OF MUCORMYCOSIS AND OTHER FUNGAL DISEASES” (priority 2006, published 2010)
Values after ≈ are worked out from the molar mass of the structure shown.

What was measured:
[1] = tested on: Non-oryzae Rhizopus; test: Deferasirox susceptibility testing (MIC/MFC), non-oryzae Rhizopus isolates; format: cell-based, Rhizopus spp.
Procedure: Minimum inhibitory concentration (MIC) and minimum fungicidal concentration (MFC) were determined for deferasirox by the method of Espinel-Ingroff using R. oryzae spores starved for iron (Espinel-Ingroff, (2001), supra). Cidality was defined as a <4-fold difference between MIC and MFC.
We next determined the deferasirox susceptibilities of multiple clinical isolates of Mucorales (Table 3). The MIC9OS of deferasirox against Mucor, non-oryzae Rhizopus spp., and R. oryzae were 3.12 to 6.25 μg/ml. MFCs were similar to MICs, and deferasirox was cidal for 28/29 (97%) of isolates. Of note, slight growth was seen within the first twelve hours even at extremely high concentrations of deferasirox. […] Furthermore, the MICs and MFCs of deferasirox against these isolates were well below clinically achievable peak (˜38 μg/ml) and trough serum levels (˜17 μg/ml) of the drug at steady state when administered at the FDA-approved starting dose (20 mg/kg/d).

[2] = tested on: R. oryzae; test: Survival of neutropenic mice infected with R. oryzae; format: in vivo
Procedure: For in vivo infection, BALB/c male mice (>20 g) were rendered diabetic with a single i.p. injection of 210 mg/kg streptozotocin in 0.2 ml citrate buffer 10 days prior to fungal challenge. […] For neutropenic mouse model, mice were injected with a single i.p. dose of 200 mg/kg cyclolphosphamide (Bristol Myer Squibb) 2 days prior to infection with R. oryzae. […] Mice were infected through the tail vein with the appropriate inocula of R. oryzae. To confirm the inocula, dilutions were streaked on PDA plates containing 0.1% triton and colonies were counted following a 24 h incubation period at 37° C. The primary efficacy endpoint was time to death. As a secondary endpoint, brain fungal burden (the primary target organ) was determined by homogenization by rolling a pipette on organs placed in Whirl-Pak™ bags (Nasco®, Fort Atkinson, Wis.) containing 1 ml saline. The homogenate was serially diluted in 0.85% saline and then quantitatively cultured on PDA. Values were expressed as log10 cfu g−1 tissue. Finally, for histopathological analysis, infected organs were collected from mice and fixed in 10% zinc formalin. Fixed tissues were embedded in paraffin, and […] sections were stained with haematoxylin and eosin for light microscopy examination. All procedures involving mice were approved by the institutional animal use and care committee, following the National Institutes of Health guidelines for animal housing and care.
Two days later, mice were infected via the tail-vein with 2.7×10^3 spores of R. oryzae 99-892.

[3] = 24 h, R. microsporus ATCC 62417
[4] = 48 h, R. microsporus ATCC 62417
[5] = Non-oryzae Rhizopus MIC90/MFC90, 24 h
[6] = Non-oryzae Rhizopus MIC90/MFC90, 48 h
[7] = Rhizopus, 24 h, Rhizopus sp. 99-1150
[8] = Rhizopus, 24 h, Rhizopus sp. 99-1700
[9] = Rhizopus, 48 h, Rhizopus sp. 99-1150
[10] = Rhizopus, 48 h, Rhizopus sp. 99-1700
[11] = Rhizopus, ATCC20577, 24 h, Rhizopus sp. ATCC 20577, 24 h
[12] = Rhizopus, ATCC20577, 48 h, Rhizopus sp. ATCC 20577, 48 h

## O=C(O)c1ccc(-n2nc(-c3ccccc3O)nc2-c2ccccc2O)cc1 [Deferasirox, 4-[3,5-Bis(2-hydroxyphenyl)-1H-1,2,4-triazol-1-yl]-benzoic acid]
[1]; [3]
  MFC: 0.39 µg/mL (≈ 1.04 µM)
  MIC: 0.39 µg/mL (≈ 1.04 µM)
[1]; [4]
  MFC: 0.39 µg/mL (≈ 1.04 µM)
  MIC: 0.39 µg/mL (≈ 1.04 µM)
[1]; [5]
  Fungicidal?: Y (Cidal = MFC/MIC ≦ 4)
  MFC90: 6.25 µg/mL (≈ 16.7 µM)
  MIC90: 6.25 µg/mL (≈ 16.7 µM)
[1]; [6]
  Fungicidal?: Y (Cidal = MFC/MIC ≦ 4)
  MFC90: 6.25 µg/mL (≈ 16.7 µM)
  MIC90: 3.12 µg/mL (≈ 8.36 µM)
[1]; R. microsporus ATCC 62417, 24 h
  Fungicidal?: Y (Cidal = MFC/MIC ≦ 4)
[1]; R. microsporus ATCC 62417, 48 h
  Fungicidal?: Y (Cidal = MFC/MIC ≦ 4)
[1]; Rhizopus sp. 99-1150, 24 h
  Fungicidal?: Y (Cidal = MFC/MIC ≦ 4)
[1]; Rhizopus sp. 99-1150, 48 h
  Fungicidal?: Y (Cidal = MFC/MIC ≦ 4)
[1]; Rhizopus sp. 99-1700, 24 h
  Fungicidal?: Y (Cidal = MFC/MIC ≦ 4)
[1]; Rhizopus sp. 99-1700, 48 h
  Fungicidal?: Y (Cidal = MFC/MIC ≦ 4)
[1]; Rhizopus sp. ATCC 20577, 24 h
  Fungicidal?: Y (Cidal = MFC/MIC ≦ 4)
[1]; Rhizopus sp. ATCC 20577, 48 h
  Fungicidal?: Y (Cidal = MFC/MIC ≦ 4)
[1]; [7]
  MFC: 6.25 µg/mL (≈ 16.7 µM)
  MIC: 6.25 µg/mL (≈ 16.7 µM)
[1]; [8]
  MFC: 6.25 µg/mL (≈ 16.7 µM)
  MIC: 6.25 µg/mL (≈ 16.7 µM)
[1]; [9]
  MFC: 3.12 µg/mL (≈ 8.36 µM)
  MIC: 3.12 µg/mL (≈ 8.36 µM)
[1]; [10]
  MFC: 1.56 µg/mL (≈ 4.18 µM)
  MIC: 1.56 µg/mL (≈ 4.18 µM)
[1]; [11]
  MFC: 6.25 µg/mL (≈ 16.7 µM)
  MIC: 3.12 µg/mL (≈ 8.36 µM)
[1]; [12]
  MFC: 6.25 µg/mL (≈ 16.7 µM)
  MIC: 3.12 µg/mL (≈ 8.36 µM)
[2]; 2.7×10^3 spores R. oryzae 99-892, 10 mg/kg twice qod, five doses from 24 h post infection
  time to death compared to placebo: significantly improved time to death
[2]; R. oryzae 99-892, dosed twice daily
  time to death versus placebo: did not significantly improve time to death
